For this test, the system named is cirrhotic patients with HE. Description: Cognitive performance, HE patients on rifaximin vs only on lactulose (Example 2). The format is in vivo, human. An excerpt: Patients with cirrhosis with or without HE were included for a one-time visit. We excluded patients with a current infection (defined by elevated white blood cell (WBC) count, clinical suspicion or fever), variceal bleeding within the last 4 weeks, on gut-absorbable antibiotics, or had alcohol or illicit drug intake within 3 months (checked by drug and alcohol screens). […] Patients in the “HE” group had suffered at least one HE episode within the last 3 months and were currently controlled on lactulose alone or lactulose with rifaximin.
During the visit, the subjects underwent a physical examination and measurement of body mass index (BMI), detailed analysis of medical records including current medications, a detailed dietary recall and collection of stool and blood samples. All subjects underwent a mini-mental status exam and only those scoring above 25 were included in the full study (14). Subsequently a recommended cognitive battery consisting of the following tests was administered; (a) Psychometric hepatic encephalopathy score (PHES), (b) block design test (subjects are required to replicate designs with given blocks in a timed manner) and (c) Inhibitory control test [ICT: Subjects are instructed to respond to alternating presentations of X and Y on the screen (targets) while inhibiting response when X and Y are not alternating (lures)] (5, 41). The PHES consists of number connection test-A/B (subjects are asked to “join the dots” between numbers or numbers and alphabets in a timed fashion), digit symbol (subjects are required to copy corresponding figures from a given list within 2 minutes), line drawing (time) and (errors): subjects are required to trace a line between two parallel lines and balance between speed and accuracy. Time required and the number of times the subject's line strays beyond the marked lines (errors) are recorded] and serial dotting (subjects are asked to dot the center of a group of blank circles)]. The PHES is a validated battery for cognitive dysfunction in cirrhosis and tests for psychomotor speed, visuo-motor coordination, attention and set-shifting(32). Block design tests for visuo-motor coordination. A high score on block, digit symbol and ICT targets and a low score on the rest indicate good performance.
Statistical analysis: Cirrhotics with HE were compared to those without HE with respect to BMI, inflammatory markers, cognitive performance and microbiome constituents. Unpaired t-tests were used to compare demographics, cognitive tests and inflammatory markers. Since the microbiome constituents tend to be sparse and non-parametrically distributed, we used Metastats to compare microbiome between stool and mucosa of patients with and without HE (42). Metastats performs statistical analysis (to investigate metagenomic differences) along with biomarker discovery (to evaluate specific features underlying these differences) based on repeated t statistics and Fisher's tests on random permutations (34). We also performed Metastats analysis between the mucosal microbiome compared to the stool microbiome in patients with HE and without HE and those in HE on or not on rifaximin. Principal Component Analysis (PCO) on the abundance tables and weighted and unweighted UNIFRAC analysis using the QIIME pipeline were also performed (22, 25). Subsequently, we analyzed the correlations between MELD score, BMI, inflammatory markers, cognitive tests and microbiome constituents using a correlation network analysis obtained through a customized statistical script in R (7) using a P-value cutoff of <0.05 and an R value >0.5 to identify the most significant relationships (4, 16).

On to `OC[C@H]1O[C@@H](O[C@@H]2[C@@H](CO)OC(O)(CO)[C@H]2O)[C@H](O)[C@@H](O)[C@H]1O` (mixture of isomers) [lactulose], for which, for the setting “high = good”, the block design is 19.8 score, the digit symbol is 38 score and the targets is listed as 90%. Besides, where the note is “high = poor”, the line tracing errors is 44.9, the line tracing time came to 127.3, the lures is given as 16.9 responses and the “number connection-A” value came to 52.25 s. Under “high = poor”, the “number connection-B” value turned out to be 145.8 s and the serial dotting was 84.0 s.

(Values after patent US20140179726A1, “GUT MICROFLORA AS BIOMARKERS FOR THE PROGNOSIS OF CIRRHOSIS AND BRAIN DYSFUNCTION” (priority 2011, published 2014).)
